{
  "source": "patent US20240226049A1",
  "about": "“METHODS OF TREATMENT USING BEMPEDOIC ACID” (Esperion Therapeutics, Inc., priority 2023, published 2024)",
  "tested_on": "statin-intolerant patients with or at high risk of CVD",
  "assay_type": "in vivo",
  "description": "The CLEAR OUTCOMES trial was a randomized, placebo-controlled, double-blind trial that enrolled patients at 1250 sites in 32 countries. An independent Data Monitoring Committee reviewed safety and efficacy data during the trial.\nPatients 18 to 85 years of age were eligible for enrollment if they met either of two criteria for increased cardiovascular risk, a prior cardiovascular event (secondary prevention) or clinical features that placed them at high risk for a cardiovascular event (primary prevention). (Nicholls S. Lincoff A M, Bays H E, et al. Rationale and design of the CLEAR-outcomes trial: Evaluating the effect of bempedoic acid on cardiovascular events in patients with statin intolerance. Am Heart J. 2021 May; 235:104-112) All patients provided written informed consent. Patients had to report statin intolerance due to an adverse effect that started or increased during statin therapy and resolved or improved after statin therapy was discontinued. Patients could be enrolled if they tolerated a very low average daily statin dose (e.g., an average daily dose of rosuvastatin <5 mg, atorvastatin <10 mg, simvastatin <10 mg, lovastatin <20 mg, pravastatin <40 mg, fluvastatin <40 mg, or pitavastatin <2 mg). Other lipid-lowering therapies were permitted, including ezetimibe, niacin, bile acid resins, fibrates, and/or proprotein convertase subtilisin kexin type 9 (PCSK9) inhibitors. Full inclusion and exclusion criteria are provided in Nicholls et al. (Am Heart J. 2021).\nEligible patients entered a 4-week run-in period during which patients were treated with single-blind placebo. If patients were intolerant to placebo treatment or if adherence was <80% by tablet count, they were not eligible for randomization. Patients who successfully completed the run-in period were randomly assigned in a 1:1 ratio to receive bempedoic acid at an oral dose of 180 mg or matching placebo, administered daily. Beginning 6 months after enrollment, the central laboratory notified the investigator if the patient's LDL-cholesterol level was ≥25% higher than baseline. These patients were counseled on healthy dietary guidelines and reminded to take all lipid-regulating medications. If repeat testing confirmed that LDL-cholesterol value met the threshold criteria, the provider could adjust the lipid-lowering treatment regimen per standard of care and local guidelines.\nThe primary end point was the first occurrence of a composite of death from cardiovascular causes, nonfatal myocardial infarction (MI), nonfatal stroke, or coronary revascularization. The first key secondary end point was time to the first occurrence of the composite of cardiovascular death, nonfatal stroke, or MI. Further key secondary end points included time to first occurrence of each of the following outcomes tested in hierarchical order, fatal or nonfatal MI, coronary revascularization, fatal or nonfatal stroke, death from cardiovascular causes, and all-cause mortality.\nThis was an event-driven trial designed to provide at least 90% power to detect a 15% relative risk reduction for the primary composite end point at an overall two-sided significance level of 0.05. The trial required a minimum of 1620 primary composite events with ≥24 months of follow-up for all patients and at least 810 first key secondary end points. The average treatment duration was estimated to be 42 months and a lost-to-follow-up rate of 1% per year. Assuming a 3.59% annual event rate in the placebo group, enrollment of 12,600 patients was required, subsequently amended to 14,000. There were no interim efficacy analyses. A hierarchical approach was prespecified to evaluate sequentially each of the six key secondary efficacy end points with statistical significance at each step required to test the next hypothesis, thereby preserving the study-wise Type I error rate at 5%. All analyses were based on the intent-to-treat principle. […]",
  "key": {"[1]": {"conditions": "full population, 180 mg oral daily, N = 6992"}},
  "data": [
    {"smiles": "CC(C)(CCCCCC(O)CCCCCC(C)(C)C(=O)O)C(=O)O", "note": "[Bempedoic Acid, Bempedoic acid]", "values": [
      {"measurement": "effect on other key secondary end points (time to first occurrence of stroke, death from cardiovascular causes, all-cause mortality)", "setting": "compared with placebo, full population", "result": "no significant effects"},
      {"measurement": "3-component MACE, % of patients", "setting": "[1]", "result": "(8.2) %"},
      {"measurement": "Coronary revascularization, % of patients", "setting": "[1]", "result": "(6.2) %"},
      {"measurement": "Fatal and non-fatal MI, % of patients", "setting": "[1]", "result": "(3.7) %"},
      {"measurement": "Primary efficacy endpoint (MACE-4), % of patients", "setting": "[1]", "result": "(11.7) %"},
      {"measurement": "New-onset type 2 diabetes mellitus, Hazard Ratio", "setting": "human, in vivo", "result": 0.95},
      {"measurement": "reduction in risk of non-fatal myocardial infarction", "setting": "vs placebo, 180 mg oral daily", "result": "about 27%"},
      {"measurement": "3-component MACE, Hazard Ratio", "setting": "vs placebo, full population", "result": 0.85},
      {"measurement": "5 component MACE, Hazard Ratio", "setting": "vs placebo, full population", "result": 0.86},
      {"measurement": "All-cause mortality, nonfatal MI, nonfatal stroke, or coronary revascularization, Hazard Ratio", "setting": "vs placebo, full population", "result": 0.89},
      {"measurement": "Coronary revascularization, Hazard Ratio", "setting": "vs placebo, full population", "result": 0.81},
      {"measurement": "Fatal and non-fatal MI, Hazard Ratio", "setting": "vs placebo, full population", "result": 0.77},
      {"measurement": "Fatal and non-fatal stroke, Hazard Ratio", "setting": "vs placebo, full population", "result": 0.85},
      {"measurement": "Fatal and nonfatal non-hemorrhagic stroke, Hazard Ratio", "setting": "vs placebo, full population", "result": 0.78},
      {"measurement": "Hospitalization for unstable angina, Hazard Ratio", "setting": "vs placebo, full population", "result": 0.66},
      {"measurement": "Non-fatal MI, Hazard Ratio", "setting": "vs placebo, full population", "result": 0.73},
      {"measurement": "Non-fatal stroke, Hazard Ratio", "setting": "vs placebo, full population", "result": 0.82},
      {"measurement": "Primary efficacy endpoint (MACE-4), Hazard Ratio", "setting": "vs placebo, full population", "result": 0.87}
    ]}
  ]
}
